Source: patent publication US20230095509A1, “NON-FIBRILLAR HEMOGLOBIN S OLIGOMERS AND METHODS TO IDENTIFY MODULATORS OF HEMOGLOBIN S POLYMERIZATION” (REGENTS OF THE UNIVERSITY OF MINNESOTA, priority 2021, published 2023)
Entries after “also recorded” stand apart in the source; their conditions may differ.

Legend:
[1] = target: T1, deoxyHbS oligomers (HbS-rhodamine red / HbS-Cy5) (Homo sapiens, UniProt P68871+P69905, E7V); test: Fluorescence lifetime (FLT) FRET assay of deoxyHbS oligomerization (LOPAC screen and dose response); type: biochemical
T1 construct: purchased Sigma
Procedure: Development of HTS platform for identification of small molecules that inhibit in vitro HbS nucleation: Sickle hemoglobin (HbS) (sigma) was labeled with either fluorescent donor (rhodamine red) or acceptor (Cy5) dyes (Thermo fisher scientific) via a cysteine thiol group. For labeling, lyophilized HbS (10 mg/ml) was dissolved in PBS (Sigma) and then centrifuged at 13000 g for five minutes at 4° C. to remove the debris. After centrifugation protein sample was incubated with TCEP (0.5-1 mM) for 20 minutes at room temperature to reduce the cysteine side-chain. This protein mixture was incubated with 1.5 mM dye (dissolved in DMSO or water) for two hours in the dark at room temperature or overnight at 4° C. Unreacted free dye was removed by dialysis against PBS. The degree of labeling was calculated by comparing the absorption of the fluorophore conjugated hemoglobin at 280 nm to the absorbance of the dye at its maximum wavelength. The dye concentration was measured by absorbance, using extinction coefficients of 250,000 M −1 cm -1 for Cy5 conjugates and 88000 M −1 cm -1 for Rhodamine Red conjugates.
High-Throughput Screening of LOPAC Library to Identify Compounds That Inhibit HbS Oligomerization Under Deoxy Condition: The LOPAC compounds (Thermo Fisher Scientific) were received in 96-well plates. Assay plates were prepared by transferring 5 nL of the 10 mM compound stocks or DMSO from the source plates to 1536-well black polypropylene plates (Greiner), using an Echo 550 acoustic dispenser (Labcyte). During screening, donor sample (HbS/Rhodamine Red) was mixed with acceptor (HbS/Cy5) at 1:5 ratios. Then protein samples were dispensed (5 μL, 25 μM) by a Multidrop Combi Reagent Dispenser (Thermo Fisher Scientific) into the 1536-well assay plates containing the compounds and incubated at room temperature for two hours. After incubation, protein samples were degassed for 10-15 minutes using vacuum argon degassing method. Lifetime measurements were taken by the fluorescence lifetime plate reader (Fluorescence Innovations, Inc).
Fluorescence Data Acquisition: We tested the functionality of the HbS FRET pair by measuring lifetimes of oxy-and deoxy HbA and HbS using a fluorescence lifetime plate reader (FIG. 3A). Lifetimes are reciprocally related to FRET, so a decrease in lifetime corresponds to an increase in FRET. Donor fluorescence was excited with a 532 nm laser (Teem Photonics SNG-20F-100, Meylan, France), delivering pulses of -0.3 μJ energy at a 20 kHz repetition rate, and emission was filtered with 546 nm long pass and 586/20 nm band pass filters. This filter was selected to exclude acceptor fluorescence, as only the lifetime of the donor fluorescent protein is required to calculate FRET (Equation (1)). The photomultiplier tube (PMT) voltage was adjusted so that the peak signals of the instrument response function (IRF) and FRET biosensor were similar.
High-Throughput Screening Data Analysis: Time resolve-fluorescence waveforms for each well were fitted with single-exponential decays using least-squares minimization global analysis software (Petersen et al., F2014, Rev Sci Instrum 85, 113101). FRET efficiency (E) was determined as the fractional decrease of donor lifetime (T_D ), due to the presence of acceptor fluorophore (T_DA) using equation 1: […]
These drug compounds were dissolved in DMSO to make 20 mM stock solution. Hits were screened at seven different concentrations. Protein samples were dispensed into the 96-well assay plates and incubated with hit compounds at room temperature for two hours. After incubation, protein samples were degassed for 10 minutes using vacuum argon degassing method. Lifetime measurements were taken by the fluorescence lifetime plate reader (Fluorescence Innovations, Inc).

[2] = target: deoxy-HbS oligomers (sickle hemoglobin, HbS) (Homo sapiens, UniProt P68871+P69905, E7V); test: Dynamic light scattering (DLS) of deoxy-HbS oligomers at sub-nucleating concentration; type: biochemical; details: HbS 25 μM, hit compounds 100 μM, two hours at room temperature, degassed with argon; FIG. 4C
Procedure: (FIG. 4A) Pilot screening with LOPAC library. Compounds that reduced the FRET efficiency below 3SD (black line) were selected for further characterization. […] Fluorescently labeled HbS samples were plated in a 1536 plate and treated separately with DMSO or the three hit compounds, chlormezanone, gabazine, and phosphoramidon disodium, in a dose-dependent manner from 0.1 to 1000 μM for 2 hours at room temperature and then vacuum degassed for 10 minutes, and then donor lifetimes were measured using a fluorescence plate reader. […] HbS samples (25 μM) were incubated separately with hit compounds (100 μM) or DMSO only for two hours at room temperature and degassed with argon for five minutes, and then DLS measurement were taken at room temperature. […] Effect of hit compounds on polymerization of deoxyHbS in high potassium phosphate buffer. Curves represent growth of polymer as a function of time in the presence or absence of drug.

## CC(C)C[C@H](NP(=O)(O)O[C@@H]1O[C@@H](C)[C@H](O)[C@@H](O)[C@H]1O)C(=O)N[C@@H](Cc1c[nH]c2ccccc12)C(=O)O [phosphoramidon disodium]
[1]; 0.1 to 1000 μM, 2 hours at room temperature, then degassed, FIG. 4B
  FRET efficiency in dose response: decreased FRET efficiency in a dose-dependent manner
[2]
  size of deoxyHbS oligomers (DLS effective diameter) relative to control: significantly decreased the oligomer size

## N[C@@H](Cc1ccccc1)C(=O)O [phenylalanine]
[1]; known polymerization inhibitors as controls, FIG. 1D
  FRET efficiency of HbS under deoxy conditions: decreased the FRET efficiency; also recorded: reduced FRET efficiency
